Test results reported in patent US9273058B2 (BRISTOL-MYERS SQUIBB COMPANY, priority 2013, dated 2016).

How the values were obtained:
CK1ε = CK1ε (Homo sapiens, UniProt P49674); assay: CK1ε kinase assay (Caliper LabChip electrophoretic separation of fluoresceinated peptide substrate and product); format: biochemical; settings: 200 pM CK1ε, 50 μM ATP, 1.5 μM peptide, 22 hours at room temperature; read-out: CK1ε IC50 range
Procedure, shortened: (§1)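 Each reaction was incubated 22 hours at room temperature and terminated with EDTA. Read-out was microfluidic electrophoretic separation of fluoresceinated substrate and phospho-product.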

CK1δ = CK1δ (Homo sapiens, UniProt P48730); assay: CK1δ kinase assay (Caliper LabChip electrophoretic separation of fluoresceinated peptide substrate and product); format: biochemical; settings: 200 pM CK1δ, 50 μM ATP, 1.5 μM peptide, 22 hours at room temperature; read-out: CK1δ IC50 range
Sequence of CK1δ (P48730 whole entry): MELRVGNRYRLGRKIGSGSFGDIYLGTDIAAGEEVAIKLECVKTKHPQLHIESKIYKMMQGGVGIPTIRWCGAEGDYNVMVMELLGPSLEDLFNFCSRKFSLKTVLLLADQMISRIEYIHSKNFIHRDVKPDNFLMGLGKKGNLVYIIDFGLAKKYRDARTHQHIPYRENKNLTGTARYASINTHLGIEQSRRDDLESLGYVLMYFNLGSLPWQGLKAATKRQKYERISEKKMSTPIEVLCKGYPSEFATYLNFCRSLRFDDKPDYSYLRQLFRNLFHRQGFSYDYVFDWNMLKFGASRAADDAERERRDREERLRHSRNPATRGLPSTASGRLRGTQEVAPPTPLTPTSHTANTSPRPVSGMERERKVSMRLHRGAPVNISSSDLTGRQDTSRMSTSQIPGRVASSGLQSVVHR
Procedure, shortened: as §1

Sequence of CK1ε (P49674 whole entry): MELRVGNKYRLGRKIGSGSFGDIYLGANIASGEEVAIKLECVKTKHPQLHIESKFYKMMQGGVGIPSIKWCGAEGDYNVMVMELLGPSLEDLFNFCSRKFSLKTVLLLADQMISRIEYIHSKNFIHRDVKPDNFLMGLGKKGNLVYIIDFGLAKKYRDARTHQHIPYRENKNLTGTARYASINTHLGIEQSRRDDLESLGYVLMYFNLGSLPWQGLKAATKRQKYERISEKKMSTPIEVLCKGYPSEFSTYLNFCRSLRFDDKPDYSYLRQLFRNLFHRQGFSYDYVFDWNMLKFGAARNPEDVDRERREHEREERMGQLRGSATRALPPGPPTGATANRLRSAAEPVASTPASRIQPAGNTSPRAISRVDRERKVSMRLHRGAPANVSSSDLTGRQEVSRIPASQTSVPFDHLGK

SMILES | IC50 (CK1ε) [nM] | IC50 (CK1δ) [nM]
CC12CC3(C)CC(C)(C1)CC(NC(=O)N1CCn4nc(-c5ccc(F)c(Cl)c5)c(C(N)=O)c4C1)(C2)C3 [Compound A65, 2-(3-Chloro-4-fluorophenyl)-N^5-((3s,5s,7s)-3,5,7-trimethyladamantan-1-yl)-6,7-dihydropyrazolo[1,5-a]pyrazine-3,5(4H)-dicarboxamide] | 0.01 to 10 | 0.01 to 10
CC1(C)C2CCC1(NC(=O)N1CCn3nc(-c4ccc(F)c(Cl)c4)c(C(N)=O)c3C1)CC2O (stereo not shown) [Compound A66, 2-(3-Chloro-4-fluorophenyl)-N^5-(3-hydroxy-7,7-dimethylbicyclo[2.2.1]heptan-1-yl)-6,7-dihydropyrazolo[1,5-a]pyrazine-3,5(4H)-dicarboxamide] | 0.01 to 10 | 0.01 to 10
CC1(C)C2CCC1(NC(=O)N1CCn3nc(-c4ccc(F)c(Cl)c4)c(C(N)=O)c3C1)CC2F (stereo not shown) [Compound A67, 2-(3-Chloro-4-fluorophenyl)-N^5-(3-fluoro-7,7-dimethylbicyclo[2.2.1]heptan-1-yl)-6,7-dihydropyrazolo[1,5-a]pyrazine-3,5(4H)-dicarboxamide] | 0.01 to 10 | 0.01 to 10
CC12CC3CC(C)(C1)CC(NC(=O)N1CCn4nc(-c5ccc(F)c(Cl)c5)c(C(N)=O)c4C1)(C3)C2 [Compound A68, 2-(3-Chloro-4-fluorophenyl)-N^5-((1r,3R,5S,7r)-3,5-dimethyladamantan-1-yl)-6,7-dihydropyrazolo[1,5-a]pyrazine-3,5(4H)-dicarboxamide] | 0.01 to 10 | 0.01 to 10
C[C@@]12C[C@H]3C[C@@](Cl)(C1)C[C@](NC(=O)N1CCn4nc(-c5ccc(F)c(Cl)c5)c(C(N)=O)c4C1)(C3)C2 [Compound A69, 2-(3-Chloro-4-fluorophenyl)-N^5-((1S,3R,5S,7R)-3-chloro-5-methyladamantan-1-yl)-6,7-dihydropyrazolo[1,5-a]pyrazine-3,5(4H)-dicarboxamide] | 0.01 to 10 | 0.01 to 10
COC12CCC(NC(=O)N3CCn4nc(-c5cccc(Cl)c5)c(C(N)=O)c4C3)(CC1)C(=O)C2 [Compound A76, 2-(3-Chlorophenyl)-N^5-(4-methoxy-2-oxobicyclo[2.2.2]octan-1-yl)-6,7-dihydropyrazolo[1,5-a]pyrazine-3,5(4H)-dicarboxamide] | 0.01 to 10 | 0.01 to 10

Continued, values first:

IC50 (CK1ε) [nM] | IC50 (CK1δ) [nM] | SMILES
0.01 to 10 | 0.01 to 10 | NC(=O)c1c(-c2ccc(F)c(Cl)c2)nn2c1CN(C(=O)NC13CCC(CC1)CC3)CC2 [Compound A58, N^5-(Bicyclo[2.2.2]octan-1-yl)-2-(3-chloro-4-fluorophenyl)-6,7-dihydropyrazolo[1,5-a]pyrazine-3,5(4H)-dicarboxamide]
0.01 to 10 | 0.01 to 10 | COC12CCC(NC(=O)N3CCn4nc(-c5ccc(F)c(Cl)c5)c(C(N)=O)c4C3)(CC1)C(F)(F)C2 [Compound A61, 2-(3-Chloro-4-fluorophenyl)-N^5-(2,2-difluoro-4-methoxybicyclo[2.2.2]octan-1-yl)-6,7-dihydropyrazolo[1,5-a]pyrazine-3,5(4H)-dicarboxamide]
0.01 to 10 | 0.01 to 10 | CC(C)(O)C12CCC(NC(=O)N3CCn4nc(-c5ccc(F)c(Cl)c5)c(C(N)=O)c4C3)(CC1)CC2 [Compound A62, 2-(3-Chloro-4-fluorophenyl)-N^5-(4-(2-hydroxypropan-2-yl)bicyclo[2.2.2]octan-1-yl)-6,7-dihydropyrazolo[1,5-a]pyrazine-3,5(4H)-dicarboxamide]
0.01 to 10 | 0.01 to 10 | COC12CCC(NC(=O)N3CCn4nc(-c5ccc(F)c(Cl)c5)c(C(N)=O)c4C3)(CC1)C2 [Compound A63, 2-(3-Chloro-4-fluorophenyl)-N^5-(4-methoxybicyclo[2.2.1]heptan-1-yl)-6,7-dihydropyrazolo[1,5-a]pyrazine-3,5(4H)-dicarboxamide]
0.01 to 10 | 0.01 to 10 | NC(=O)c1c(-c2ccc(F)c(Cl)c2)nn2c1CN(C(=O)NC13CCCC(CCC1)C3)CC2 [Compound A64, N^5-((1r,5r)-Bicyclo[3.3.1]nonan-1-yl)-2-(3-chloro-4-fluorophenyl)-6,7-dihydropyrazolo[1,5-a]pyrazine-3,5(4H)-dicarboxamide]
